Experimental data: patent publication US6835382B2, “Ii peptide therapeutics to enhance antigen presentation” (University of Massachusetts, priority 1996, dated 2004)
Positions of bridges follow the written chain, without caps; N, C: chain ends. Non-standard residues stand in square brackets, D forms with d. No end group written: not given here. hArg = N=C(N)NCCCC[C@H](N)C(=O)O; Cit = NC(=O)NCCC[C@H](N)C(=O)O

Target: T1, murine E^d MHC class II allele (Mus musculus, UniProt P01904+P01915)
T1 sequence (P01904 26-255): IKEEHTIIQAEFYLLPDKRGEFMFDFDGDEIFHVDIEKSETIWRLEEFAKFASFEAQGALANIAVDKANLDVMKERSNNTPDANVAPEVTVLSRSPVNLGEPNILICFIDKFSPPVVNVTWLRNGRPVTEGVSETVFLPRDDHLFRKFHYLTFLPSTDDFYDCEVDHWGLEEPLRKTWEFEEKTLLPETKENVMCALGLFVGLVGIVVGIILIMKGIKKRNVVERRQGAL
T1 sequence (P01915 27-264 limits assumed): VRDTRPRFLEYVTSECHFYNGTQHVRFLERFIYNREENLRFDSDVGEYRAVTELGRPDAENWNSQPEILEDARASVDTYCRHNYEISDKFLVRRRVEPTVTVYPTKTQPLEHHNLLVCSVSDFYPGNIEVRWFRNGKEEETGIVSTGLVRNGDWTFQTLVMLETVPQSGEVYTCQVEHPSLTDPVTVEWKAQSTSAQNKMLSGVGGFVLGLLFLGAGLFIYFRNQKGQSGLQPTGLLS
Test: simultaneous assay, E^d allele (A20 APC, G28.C9 T hybridoma, HEL106-116; HT-2 [3H]TdR readout)
Assay type: cell-based
Set-up: The A20 and CH27 B cell lymphoma lines express H-2^d and H-2^k alleles, respectively; endogenous in cells; host or cells: A20 B cell lymphoma (mitomycin C-treated or paraformaldehyde-fixed)
In short: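 Antigenic peptide, mitomycin C-treated APC, effector compound and allele-restricted T hybridoma cultured together for 24 h. Supernatant then transferred to interleukin-dependent HT-2 cells. T cell activation quantified as [3H]TdR uptake by HT-2 cells.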

[1] = Table 15, AE peptide 16 μM, supernatant 1:4
[2] = Table 16, AE peptide 4 μM, supernatant 1:8
[3] = Table 18, AE peptide 64 μM, supernatant 1:4

Substance	Times Baseline Response, E^d [2]	other results
Ac-A[Cit]NKNPK-NH2 [AE351]	–	Times Baseline Response, E^d [1]: 0.8
Ac-FK HArg MYP Cit-NH2 [AE371]	1.6	–
Ac-LK HArg KYPK-NH2 [AE363]	1.6	–
Ac-LKMKYPK-NH2 [AE362]	1.2	–
Ac-LR HArg KYP Cit-NH2 [AE366]	7.3	–
Ac-LR HArg MYPK-NH2 [AE365]	6.1	–
Ac-LR Orn K HArg PK-NH2 [AE340]	–	Times Baseline Response, E^d [1]: 46.6
Ac-LRLKYPN-NH2 [AE368]	9.4	–
Ac-LRMKLPK (lactam 4-C) [AE382]	–	Times Baseline Response, E^d [3]: 1.9; activity in simultaneous assay on E^d, in words (text on Table 18): relatively inactive
Ac-LRMKNPF-NH2 [AE350]	–	Times Baseline Response, E^d [1]: 28.6
Ac-LRMKYPN-NH2 [AE370]	8.7	–
Ac-LRMKYP[Cit]-NH2 [AE364]	14.0	–
Ac-LRMMYP[Cit]-NH2 [AE367]	1.0	–
Ac-L[hArg]LKYPK-NH2 [AE361]	8.2	–
Ac-L[hArg]MKYPK-NH2 [AE360]	5.8	–
cyclic LRMKLPK (bridge (positions not given here); also: cyclic, ring type not given here) [AE381, “head-to-tail” cyclization from the amino-terminus to the carboxyl-terminus of AE114]	–	Times Baseline Response, E^d [3]: 2.1; activity in simultaneous assay on E^d and E^k, in words (Tables 12 and 18): weak
